Experiments:
Wnt signalling (HepG2) = experiment: TopFlash dual luciferase assay, HepG2; format: cell-based, human
Method: (§1) Briefly, 50 µl of indicated cell lines at 84'000/ml for Huh7, or 96'000/ml for SNU398, or 144'000/ml for HepG2, Hep3B were distributed in a white opaque 384-well plate. The cells were maintained in their respective culture mediums and incubated at 37°C, 5% CO2 overnight for attachment. Afterwards, the cells are double-transfected (1:1 mixture) with the Wnt-specific TopFlash reporter plasmid (Syngene) and a Wnt-independent CMV-Renilla plasmid monitoring the general level of cell transcription (Addgene, Cambridge, MA, USA). The relative nature of this representation (ratio of the TopFlash to the CMV-Renilla levels) permits to compare Wnt pathway levels across cell types, being independent from individual cell transfection efficiency.
(§2) Transfection was carried out as described in the manufacturer's protocol using 12 µg/ml of DNA and 40 µl/ml XtremeGENE 9 reagent (Roche). The next day, the medium of each well was replaced 30 µl fresh medium containing Wnt3a (500 ng/ml) (purified as described by (Koval and Katanaev, 2011, Biochemical Journal 433, 435) or GSK3β inhibitor (CHIR99021, Sigma-Aldrich) and clofazimine at 5, 10, and 15 µM concentrations (following 1h of preincubation with the compound). After overnight incubation, the supernatant in each well was removed and the luciferase activity was measured as described (Koval and Katanaev, 2011, supra). […]

Wnt signalling (SNU398) = experiment: TopFlash dual luciferase assay, SNU398; format: cell-based, human
Method: as §1, §2

Wnt signalling (Hep3B) = experiment: TopFlash dual luciferase assay, Hep3B; format: cell-based, human
Method: as §1, §2

Wnt signalling (Huh7) = experiment: TopFlash dual luciferase assay, Huh7; format: cell-based, human
Method: as §1, §2

Huh7 = experiment: MTT survival assay, Huh7; format: cell-based; settings: Homo sapiens, Huh-7, Huh7 cells, incubation 4-7 days
Method: (§3) The four hepatocellular carcinoma (HCC) cell lines were tested in MTT survival assay with clofazimine as described below: 50 µl of the indicated cell lines re-suspended at 60'000 cells/ml for HepG2, Hep3B, at 35'000/ml for Huh7 and at 40'000/ml for SNU398 were added into each well of a transparent 384-well plate. The cells were maintained in DMEM containing 10% FBS for Hep3B; RPMI with 10% FBS for SNU398; DMEM without glucose containing 10% FBS and 1g/L glucose for Huh7 and MEM without glucose containing 10% FBS for HepG2 and incubated at 37°C, 5% CO2 overnight. The medium of each well was replaced by 100 µl fresh medium the next day containing the indicated concentrations of clofazimine. After incubation for 4-7 days (depending on the growth rate of line), the medium in each well was replaced by 50 µl of 0.5 mg/ml Thiazolyl blue (Carl Roth) solution in 1xPBS. The plates were incubated for 3h at 37°C. Then the solution was removed and 50 µl DMSO was added into each well. Absorbance at 570 nm was measured in a Tecan Infinite M200 PRO plate reader.

Hep3B = experiment: MTT survival assay, Hep3B; format: cell-based, human
Method: as §3

SNU398 = experiment: MTT survival assay, SNU398; format: cell-based, human
Method: as §3

HepG2 = experiment: MTT survival assay, HepG2; format: cell-based; settings: Homo sapiens, HepG2 cells, incubation 4-7 days
Method: as §3

[1] = versus relatively low basal level
[2] = clofazimine 5, 10, 15 µM, Wnt3a 500 ng/ml

| Compound | stimulation of Wnt signalling levels by activator (TopFlash) (Wnt signalling (HepG2); versus very high basal level) | stimulation of Wnt signalling levels by activator (TopFlash) (Wnt signalling (SNU398); versus very high basal level) | stimulation of Wnt signalling levels by activator (TopFlash) (Wnt signalling (Hep3B); [1]) | stimulation of Wnt signalling levels by activator (TopFlash) (Wnt signalling (Huh7); [1]) | IC50 (Huh7) [µM] | inhibiting effect on Wnt signaling (Wnt3a-induced response in the TopFlash assay) (Wnt signalling (HepG2); [2]) | inhibiting effect on Wnt signaling (Wnt3a-induced response in the TopFlash assay) (Wnt signalling (SNU398); [2]) | stronger sensitivity to growth inhibition than HepG2 and Huh7 (Hep3B; Hep3B versus HepG2 and Huh7, MTT assay) [fold] | IC50 (Hep3B; Homo sapiens, Hep3B cells, MTT, incubation 4-7 days) [µM] | inhibiting effect on Wnt signaling (Wnt3a-induced response in the TopFlash assay) (Wnt signalling (Hep3B); [2]) | inhibiting effect on Wnt signaling (Wnt3a-induced response in the TopFlash assay) (Wnt signalling (Huh7); [2]) | IC50 (SNU398; Homo sapiens, SNU-398, SNU398 cells, MTT, incubation 4-7 days) [µM] | stronger sensitivity to growth inhibition than HepG2 and Huh7 (SNU398; SNU398 versus HepG2 and Huh7, MTT assay) [fold] | IC50 (HepG2) [µM] |
| --- | --- | --- | --- | --- | --- | --- | --- | --- | --- | --- | --- | --- | --- | --- |
| Cc1c[nH]c(-c2cnc(NCCNc3ccc(C#N)cn3)nc2-c2ccc(Cl)cc2Cl)n1 [CHIR99021] | not at all or to at best limited extent further increased | not at all or to at best limited extent further increased | strongly stimulated | strongly stimulated | – | – | – | – | – | – | – | – | – | – |
| CC(C)N=c1cc2n(-c3ccc(Cl)cc3)c3ccccc3nc-2cc1Nc1ccc(Cl)cc1 [clofazimine, N,5-bis(4-chlorophenyl)-3-(propan-2-ylimino)-3,5-dihydrophenazin-2-amine] | – | – | – | – | 13 | non-responsive | inhibited | > 10 | 1 to 2 | inhibited | non-responsive | 1 to 2 | > 10 | 17 |

— EP3991732A1, “USE OF CLOFAZIMINE IN HEPATOCELLULAR CARCINOMA” (UNIVERSITE DE GENEVE, priority 2020, dated 2022)
